What was measured:
K562 = experiment: Leukemia K562 cell line MDS Pharma Services Proliferation Assay; format: functional, cell-based, Homo sapiens
[1] = biological target: cAMP-dependent protein kinase catalytic subunit alpha (Homo sapiens) (UniProt P17612); experiment: PKA (h) Upstate kinase activity assay; details: Compound concentration 10.0 uM
[2] = biological target: Tyrosine-protein kinase Lyn (Mus musculus) (UniProt P25911); experiment: Lyn (m) Upstate kinase activity assay; details: Compound concentration 10.0 uM
[3] = biological target: Serine/threonine-protein kinase PAK 2 (Homo sapiens) (UniProt Q13177); experiment: PAK2 (h) Upstate kinase activity assay; details: Compound concentration 10.0 uM
[4] = biological target: D(3) dopamine receptor (Homo sapiens) (UniProt P35462); details: Compound concentration 10.0 uM
[5] = biological target: Serine/threonine-protein kinase MARK2 (Homo sapiens) (UniProt Q7KZI7); experiment: PAR-1Balpha (h) Upstate kinase activity assay; details: Compound concentration 10.0 uM
[6] = biological target: High affinity nerve growth factor receptor (Homo sapiens) (UniProt P04629); details: Compound concentration 10.0 uM
[7] = biological target: Proto-oncogene tyrosine-protein kinase ROS (Homo sapiens) (UniProt P08922); experiment: Ros (h) Upstate kinase activity assay; details: Compound concentration 10.0 uM
[8] = biological target: Rho-associated protein kinase 2 (Homo sapiens, UniProt O75116); details: Compound concentration 10.0 uM
[9] = biological target: Protein kinase C delta type (Homo sapiens) (UniProt Q05655); experiment: PKCdelta (h) Upstate kinase activity assay; details: Compound concentration 10.0 uM
[10] = biological target: Mitogen-activated protein kinase 1 (Homo sapiens) (UniProt P28482); experiment: MAPK1 (h) Upstate kinase activity assay; details: Compound concentration 10.0 uM
[11] = biological target: Tyrosine-protein kinase Blk (Mus musculus) (UniProt P16277); experiment: Blk (m) Upstate kinase activity assay; details: Compound concentration 10.0 uM
[12] = biological target: Tyrosine-protein kinase BTK (Homo sapiens) (UniProt Q06187); experiment: BTK (h) Upstate kinase activity assay; details: Compound concentration 10.0 uM
[13] = Lymphoma1-1331-IJ- JAl cell line MDS Pharma Services Proliferation Assay; format: functional, cell-based, Homo sapiens
MCF7 = experiment: Breast MCF-7 cell line MDS Pharma Services Proliferation Assay; format: functional, cell-based, Homo sapiens
[14] = biological target: MAP kinase-activated protein kinase 2 (Homo sapiens) (UniProt P49137); experiment: MAPKAP-K2 (h) Upstate kinase activity assay; details: Compound concentration 10.0 uM
[15] = biological target: T1, Serine/threonine-protein kinase 3 (Homo sapiens) (UniProt Q13188); experiment: MST2 (h) Upstate kinase activity assay; details: Compound concentration 10.0 uM
T1 sequence (whole entry): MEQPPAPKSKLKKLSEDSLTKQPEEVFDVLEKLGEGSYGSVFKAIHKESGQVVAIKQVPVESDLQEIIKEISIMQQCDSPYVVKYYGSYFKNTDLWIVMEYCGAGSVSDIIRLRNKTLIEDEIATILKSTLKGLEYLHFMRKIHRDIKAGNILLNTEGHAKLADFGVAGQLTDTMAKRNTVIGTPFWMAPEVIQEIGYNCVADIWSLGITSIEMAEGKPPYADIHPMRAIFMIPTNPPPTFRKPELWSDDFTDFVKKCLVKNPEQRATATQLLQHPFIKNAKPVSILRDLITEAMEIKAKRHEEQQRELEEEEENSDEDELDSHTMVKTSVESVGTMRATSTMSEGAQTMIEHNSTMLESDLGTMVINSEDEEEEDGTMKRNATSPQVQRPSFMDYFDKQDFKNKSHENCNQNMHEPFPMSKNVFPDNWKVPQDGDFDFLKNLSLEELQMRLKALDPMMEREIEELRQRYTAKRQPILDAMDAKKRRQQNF

[16] = biological target: Cyclin-dependent kinase 2/cyclin E (Homo sapiens) (UniProt P24864+P24941+O96020); experiment: CDK2/ cyclin E (h) Upstate kinase activity assay; format: protein-complex assay; details: Compound concentration 10.0 uM
[17] = biological target: Protein kinase C gamma type (Homo sapiens) (UniProt P05129); experiment: PKCgamma (h) Upstate kinase activity assay; details: Compound concentration 10.0 uM
[18] = biological target: Tyrosine-protein kinase ABL2 (Mus musculus) (UniProt Q4JIM5); experiment: Arg (m) Upstate kinase activity assay; details: Compound concentration 10.0 uM
[19] = biological target: Mitogen-activated protein kinase 10 (Homo sapiens) (UniProt P53779); experiment: JNK3 (h) Upstate kinase activity assay; details: Compound concentration 10.0 uM
[20] = biological target: Protein kinase C beta type (Homo sapiens) (UniProt P05771); experiment: PKCBII(h) Upstate kinase activity assay; details: Compound concentration 10.0 uM
HepG2 = experiment: Liver HepG2 cell line MDS Pharma Services Proliferation Assay; format: functional, cell-based, Homo sapiens
[21] = biological target: Mitogen-activated protein kinase 1 (Homo sapiens) (UniProt P28482); experiment: MAPK2 (h) Upstate kinase activity assay; details: Compound concentration 10.0 uM
[22] = biological target: Mitogen-activated protein kinase kinase kinase 20 (Homo sapiens) (UniProt Q9NYL2); details: Compound concentration 100.0 nM
[23] = tested on: Epidermal growth factor receptor (Homo sapiens), P00533 [UNDEFINED MUTATION]; details: Compound concentration 100.0 nM
[24] = tested on: Epidermal growth factor receptor (Homo sapiens), P00533 [L858R,T790M]; details: Compound concentration 100.0 nM
[25] = tested on: Epidermal growth factor receptor (Homo sapiens), P00533 [L858R]; details: Compound concentration 100.0 nM
[26] = Homo sapiens, Lymphoma1-1331-IJ- JAl

Mitogen-activated protein kinase 1 (Homo sapiens), sequence (P28482 whole entry): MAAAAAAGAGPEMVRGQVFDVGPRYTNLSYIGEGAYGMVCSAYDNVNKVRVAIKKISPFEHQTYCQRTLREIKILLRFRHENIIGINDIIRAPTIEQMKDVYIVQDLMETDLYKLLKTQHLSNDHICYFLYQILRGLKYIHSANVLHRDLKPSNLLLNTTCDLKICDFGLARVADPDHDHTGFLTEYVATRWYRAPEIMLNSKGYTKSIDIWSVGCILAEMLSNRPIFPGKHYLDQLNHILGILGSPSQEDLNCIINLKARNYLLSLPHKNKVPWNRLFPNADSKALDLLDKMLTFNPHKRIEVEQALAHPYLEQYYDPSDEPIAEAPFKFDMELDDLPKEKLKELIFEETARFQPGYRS
Proto-oncogene tyrosine-protein kinase ROS (Homo sapiens), sequence (P08922 whole entry): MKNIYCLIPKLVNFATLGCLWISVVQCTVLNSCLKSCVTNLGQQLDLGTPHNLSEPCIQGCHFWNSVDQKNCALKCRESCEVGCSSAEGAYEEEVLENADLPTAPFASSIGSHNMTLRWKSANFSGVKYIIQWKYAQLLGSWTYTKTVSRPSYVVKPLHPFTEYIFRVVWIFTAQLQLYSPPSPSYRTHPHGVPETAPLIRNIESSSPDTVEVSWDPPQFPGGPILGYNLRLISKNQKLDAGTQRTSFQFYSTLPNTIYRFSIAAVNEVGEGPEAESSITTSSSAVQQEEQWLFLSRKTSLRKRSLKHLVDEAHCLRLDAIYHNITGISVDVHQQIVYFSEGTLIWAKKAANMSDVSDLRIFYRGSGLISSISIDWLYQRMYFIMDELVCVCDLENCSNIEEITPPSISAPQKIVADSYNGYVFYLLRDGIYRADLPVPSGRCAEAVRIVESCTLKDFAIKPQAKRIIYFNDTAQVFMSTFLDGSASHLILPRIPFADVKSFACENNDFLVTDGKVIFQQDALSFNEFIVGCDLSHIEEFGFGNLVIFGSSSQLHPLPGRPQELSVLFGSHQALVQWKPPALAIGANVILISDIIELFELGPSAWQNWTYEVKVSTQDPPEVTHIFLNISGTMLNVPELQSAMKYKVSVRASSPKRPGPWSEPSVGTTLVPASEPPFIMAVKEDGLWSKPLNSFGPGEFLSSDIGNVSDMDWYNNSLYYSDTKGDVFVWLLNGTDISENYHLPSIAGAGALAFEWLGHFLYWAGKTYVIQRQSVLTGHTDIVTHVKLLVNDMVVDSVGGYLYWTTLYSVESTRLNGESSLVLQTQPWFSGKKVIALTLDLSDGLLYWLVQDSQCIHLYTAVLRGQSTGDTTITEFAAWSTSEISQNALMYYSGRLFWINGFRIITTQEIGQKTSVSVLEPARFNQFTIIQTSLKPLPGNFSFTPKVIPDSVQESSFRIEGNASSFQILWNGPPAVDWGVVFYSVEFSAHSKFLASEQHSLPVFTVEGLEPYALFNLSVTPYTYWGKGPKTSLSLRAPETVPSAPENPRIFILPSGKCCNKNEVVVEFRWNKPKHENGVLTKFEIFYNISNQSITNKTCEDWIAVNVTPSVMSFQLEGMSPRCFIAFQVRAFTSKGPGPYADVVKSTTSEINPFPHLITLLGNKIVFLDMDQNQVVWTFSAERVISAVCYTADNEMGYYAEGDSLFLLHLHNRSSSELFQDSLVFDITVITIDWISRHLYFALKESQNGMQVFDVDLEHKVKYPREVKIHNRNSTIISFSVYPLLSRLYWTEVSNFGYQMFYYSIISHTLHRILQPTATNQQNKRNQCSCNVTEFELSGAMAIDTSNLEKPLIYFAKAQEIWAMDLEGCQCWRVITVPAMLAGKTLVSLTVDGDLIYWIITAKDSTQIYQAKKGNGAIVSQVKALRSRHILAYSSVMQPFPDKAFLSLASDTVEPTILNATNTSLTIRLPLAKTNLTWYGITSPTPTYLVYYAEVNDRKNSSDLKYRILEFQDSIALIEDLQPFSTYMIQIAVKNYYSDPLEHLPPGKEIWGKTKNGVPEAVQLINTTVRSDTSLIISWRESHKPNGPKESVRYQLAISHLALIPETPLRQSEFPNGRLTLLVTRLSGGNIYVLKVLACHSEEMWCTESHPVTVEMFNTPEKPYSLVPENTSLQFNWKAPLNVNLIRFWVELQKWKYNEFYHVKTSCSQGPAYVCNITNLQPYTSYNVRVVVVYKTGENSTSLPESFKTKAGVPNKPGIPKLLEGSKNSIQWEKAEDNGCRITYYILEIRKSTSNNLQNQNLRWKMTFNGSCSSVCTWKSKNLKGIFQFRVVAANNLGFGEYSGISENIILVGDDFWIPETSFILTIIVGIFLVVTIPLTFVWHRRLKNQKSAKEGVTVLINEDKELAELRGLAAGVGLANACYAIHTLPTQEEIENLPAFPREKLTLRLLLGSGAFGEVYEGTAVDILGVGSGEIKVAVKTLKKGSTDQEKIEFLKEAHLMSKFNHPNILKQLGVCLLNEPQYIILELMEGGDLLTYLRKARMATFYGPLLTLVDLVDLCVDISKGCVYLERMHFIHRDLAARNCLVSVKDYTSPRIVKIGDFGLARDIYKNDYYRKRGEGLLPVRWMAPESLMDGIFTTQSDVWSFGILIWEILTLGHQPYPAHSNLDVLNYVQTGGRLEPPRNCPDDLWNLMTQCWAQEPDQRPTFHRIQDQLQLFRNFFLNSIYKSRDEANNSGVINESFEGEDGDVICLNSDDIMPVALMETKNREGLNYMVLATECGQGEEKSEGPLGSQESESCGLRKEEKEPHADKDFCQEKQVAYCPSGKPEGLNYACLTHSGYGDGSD
Protein kinase C beta type (Homo sapiens), sequence (P05771 2-671 limits assumed): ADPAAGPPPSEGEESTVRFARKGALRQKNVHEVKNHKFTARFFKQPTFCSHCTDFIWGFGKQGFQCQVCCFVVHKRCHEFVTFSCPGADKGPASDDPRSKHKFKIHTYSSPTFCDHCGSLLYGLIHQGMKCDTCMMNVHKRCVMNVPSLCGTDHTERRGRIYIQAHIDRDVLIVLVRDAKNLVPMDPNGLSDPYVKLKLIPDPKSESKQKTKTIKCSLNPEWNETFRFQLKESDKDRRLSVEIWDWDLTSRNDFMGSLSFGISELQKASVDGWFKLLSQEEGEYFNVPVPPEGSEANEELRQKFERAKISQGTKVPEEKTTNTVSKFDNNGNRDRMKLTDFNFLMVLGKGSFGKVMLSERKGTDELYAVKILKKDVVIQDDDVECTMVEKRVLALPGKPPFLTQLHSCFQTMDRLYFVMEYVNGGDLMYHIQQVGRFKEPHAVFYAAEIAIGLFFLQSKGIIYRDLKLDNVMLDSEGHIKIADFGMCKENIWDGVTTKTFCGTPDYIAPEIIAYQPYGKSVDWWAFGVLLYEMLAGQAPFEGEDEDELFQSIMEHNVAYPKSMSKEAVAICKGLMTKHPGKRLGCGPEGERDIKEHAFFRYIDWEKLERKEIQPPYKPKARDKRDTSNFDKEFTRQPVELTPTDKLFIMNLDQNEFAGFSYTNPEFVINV
Tyrosine-protein kinase ABL2 (Mus musculus), sequence (Q4JIM5 whole entry): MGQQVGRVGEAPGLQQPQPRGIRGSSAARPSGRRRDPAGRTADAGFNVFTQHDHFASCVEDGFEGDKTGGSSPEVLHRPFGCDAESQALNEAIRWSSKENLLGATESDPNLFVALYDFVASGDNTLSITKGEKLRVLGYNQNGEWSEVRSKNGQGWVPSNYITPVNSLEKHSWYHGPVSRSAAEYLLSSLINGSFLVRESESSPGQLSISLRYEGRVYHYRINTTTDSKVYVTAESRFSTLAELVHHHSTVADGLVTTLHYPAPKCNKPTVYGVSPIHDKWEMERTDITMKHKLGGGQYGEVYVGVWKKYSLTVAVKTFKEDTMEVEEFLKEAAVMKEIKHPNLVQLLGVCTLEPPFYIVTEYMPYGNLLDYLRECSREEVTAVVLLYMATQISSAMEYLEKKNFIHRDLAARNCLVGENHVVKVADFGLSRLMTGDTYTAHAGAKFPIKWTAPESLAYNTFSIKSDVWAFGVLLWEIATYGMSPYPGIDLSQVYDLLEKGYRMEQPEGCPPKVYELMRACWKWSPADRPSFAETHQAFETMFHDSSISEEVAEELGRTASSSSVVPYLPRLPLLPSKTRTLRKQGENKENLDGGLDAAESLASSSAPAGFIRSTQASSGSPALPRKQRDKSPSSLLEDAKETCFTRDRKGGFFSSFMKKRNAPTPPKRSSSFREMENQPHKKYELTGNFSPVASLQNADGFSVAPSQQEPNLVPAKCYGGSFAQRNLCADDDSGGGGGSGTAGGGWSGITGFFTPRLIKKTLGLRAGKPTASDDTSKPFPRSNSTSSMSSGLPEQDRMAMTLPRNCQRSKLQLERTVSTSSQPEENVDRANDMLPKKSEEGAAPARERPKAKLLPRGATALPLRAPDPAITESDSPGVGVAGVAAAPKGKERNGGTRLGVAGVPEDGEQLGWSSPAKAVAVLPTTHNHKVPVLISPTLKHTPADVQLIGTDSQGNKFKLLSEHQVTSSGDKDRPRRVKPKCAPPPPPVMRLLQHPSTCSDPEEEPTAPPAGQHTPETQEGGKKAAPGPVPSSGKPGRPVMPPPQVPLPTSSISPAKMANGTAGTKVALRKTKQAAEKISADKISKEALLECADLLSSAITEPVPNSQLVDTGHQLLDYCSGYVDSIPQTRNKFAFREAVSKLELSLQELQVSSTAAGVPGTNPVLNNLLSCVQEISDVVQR
Serine/threonine-protein kinase PAK 2 (Homo sapiens), sequence (Q13177 whole entry): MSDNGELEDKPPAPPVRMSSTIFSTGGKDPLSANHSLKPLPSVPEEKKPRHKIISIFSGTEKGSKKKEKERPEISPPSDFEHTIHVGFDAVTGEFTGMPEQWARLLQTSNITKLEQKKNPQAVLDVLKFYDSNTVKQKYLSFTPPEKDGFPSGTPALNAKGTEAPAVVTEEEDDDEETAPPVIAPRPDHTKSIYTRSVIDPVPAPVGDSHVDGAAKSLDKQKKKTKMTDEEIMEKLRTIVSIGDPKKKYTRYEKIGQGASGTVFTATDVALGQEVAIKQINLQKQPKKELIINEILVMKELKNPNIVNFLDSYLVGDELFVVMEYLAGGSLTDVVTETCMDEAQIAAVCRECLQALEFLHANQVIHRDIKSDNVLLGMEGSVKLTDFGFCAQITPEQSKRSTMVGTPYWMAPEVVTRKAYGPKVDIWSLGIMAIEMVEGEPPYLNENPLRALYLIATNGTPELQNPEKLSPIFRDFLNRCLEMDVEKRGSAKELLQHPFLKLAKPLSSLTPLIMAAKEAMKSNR

Question: With `Cc1c[nH]c2nccc(Oc3c(F)cc(Nc4cc(Cl)nc(N)n4)cc3F)c12` [BAY-549] as the compound, how does the IC50 (K562; Homo sapiens, K562) read?
Answer: 8.3 µM

Question: And the TGI (K562; Homo sapiens, K562)?
Answer: > 100 µM

Question: And the CC50 (K562; Homo sapiens, K562, read-out: LC50 (the source's name))?
Answer: > 100 µM

Question: What about the “Mean % growth (n = 2) for 10.0 µM probe concentration” value (K562; ± SEM 3 % growth) of the same compound?
Answer: 42%

Question: What about the “Mean % growth (n = 2) for 1.0 µM probe concentration” value (K562; ± SEM 4 % growth) of the same compound?
Answer: 69%

Question: What about the “Mean % growth (n = 2) for 0.1 µM probe concentration” value (K562; ± SEM 5 % growth) of the same compound?
Answer: 92%

Question: And the “Mean % growth (n = 2) for 100.0 µM probe concentration” value (K562; ± SEM 6 % growth)?
Answer: 32%

Question: And the “Mean % growth (n = 2) for 0.01 µM probe concentration” value (K562; ± SEM 7 % growth)?
Answer: 95%

Question: And the inhibition [1]?
Answer: 95%

Question: What about the inhibition [2] of the same compound?
Answer: 4%

Question: What about the inhibition [3] of the same compound?
Answer: 2%

Question: What about the inhibition [4] of the same compound?
Answer: -5.8%

Question: What about the inhibition [5] of the same compound?
Answer: 33%

Question: What about the inhibition [6] of the same compound?
Answer: 99%

Question: What about the inhibition [7] of the same compound?
Answer: 10%

Question: What about the inhibition [8] of the same compound?
Answer: 100%

Question: And the inhibition [9]?
Answer: 16%

Question: And the inhibition [10]?
Answer: 1%

Question: What about the inhibition [11] of the same compound?
Answer: 16%

Question: What about the inhibition [12] of the same compound?
Answer: 1%

Question: What about the IC50 [13, 26] of the same compound?
Answer: > 100 µM

Question: What about the TGI [13, 26] of the same compound?
Answer: > 100 µM

Question: What about the CC50 ([13]; Homo sapiens, Lymphoma1-1331-IJ- JAl, read-out: LC50 (the source's name)) of the same compound?
Answer: > 100 µM

Question: And the “Mean % growth (n = 2) for 10.0 µM probe concentration” value ([13]; ± SEM 1 % growth)?
Answer: 98%

Question: What about the “Mean % growth (n = 2) for 0.1 µM probe concentration” value ([13]; ± SEM 5 % growth) of the same compound?
Answer: 103%

Question: And the “Mean % growth (n = 2) for 1.0 µM probe concentration” value ([13]; ± SEM 6 % growth)?
Answer: 97%

Question: What about the “Mean % growth (n = 2) for 100.0 µM probe concentration” value ([13]; ± SEM 7 % growth) of the same compound?
Answer: 80%

Question: And the “Mean % growth (n = 2) for 0.01 µM probe concentration” value ([13]; ± SEM 8 % growth)?
Answer: 96%

Question: And the TGI (MCF7; Homo sapiens, MCF7)?
Answer: > 100 µM

Question: And the CC50 (MCF7; Homo sapiens, MCF7, read-out: LC50 (the source's name))?
Answer: > 100 µM

Question: And the “Mean % growth (n = 2) for 1.0 µM probe concentration” value (MCF7; ± SEM 1 % growth)?
Answer: 87%

Question: What about the “Mean % growth (n = 2) for 10.0 µM probe concentration” value (MCF7; ± SEM 2 % growth) of the same compound?
Answer: 57%

Question: And the “Mean % growth (n = 2) for 0.01 µM probe concentration” value (MCF7; ± SEM 3 % growth)?
Answer: 92%

Question: What about the “Mean % growth (n = 2) for 100.0 µM probe concentration” value (MCF7; ± SEM 4 % growth) of the same compound?
Answer: 6%

Question: What about the “Mean % growth (n = 2) for 0.1 µM probe concentration” value (MCF7; ± SEM 9 % growth) of the same compound?
Answer: 89%

Question: And the inhibition [14]?
Answer: -6%

Question: And the inhibition [15]?
Answer: 59%

Question: And the inhibition [16]?
Answer: 40%

Question: And the inhibition [17]?
Answer: 33%

Question: And the inhibition [18]?
Answer: 36%

Question: What about the inhibition [19] of the same compound?
Answer: 8%

Question: And the inhibition [20]?
Answer: 9%

Question: What about the IC50 (HepG2; Homo sapiens, HepG2) of the same compound?
Answer: 3.1 µM

Question: What about the TGI (HepG2; Homo sapiens, HepG2) of the same compound?
Answer: 54 µM

Question: What about the CC50 (HepG2; Homo sapiens, HepG2, read-out: LC50 (the source's name)) of the same compound?
Answer: > 100 µM

Question: And the “Mean % growth (n = 2) for 1.0 µM probe concentration” value (HepG2; ± SEM 2 % growth)?
Answer: 62%

Question: What about the “Mean % growth (n = 2) for 0.01 µM probe concentration” value (HepG2; ± SEM 4 % growth) of the same compound?
Answer: 101%

Question: And the “Mean % growth (n = 2) for 10.0 µM probe concentration” value (HepG2; ± SEM 4 % growth)?
Answer: 18%

Question: What about the “Mean % growth (n = 2) for 0.1 µM probe concentration” value (HepG2; ± SEM 6 % growth) of the same compound?
Answer: 95%

Question: And the “Mean % growth (n = 2) for 100.0 µM probe concentration” value (HepG2; ± SEM 6 % growth)?
Answer: -3%

Question: And the inhibition [21]?
Answer: 17%

Question: With `Cn1cc(Cl)c2c(Oc3c(F)cc(Nc4cc(Cl)nc(N)n4)cc3F)ccnc21` [BAY-4900] as the compound, how does the residual activity [22] read?
Answer: 97%

Question: What about the residual activity [23] of the same compound?
Answer: 88%

Question: And the residual activity [24]?
Answer: 84%

Question: And the residual activity [25]?
Answer: 98%

— ChEMBL document CHEMBL4507274 (2021)
